#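 Values below derive from 48-hour exposures of cells grown in 96-well plates, with endpoints linearly interpolated between the two concentrations bracketing the appropriate inhibition level. GI50 = concentration required for 50% inhibition of growth. TGI is the concentration that stops growth completely.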
# Assays:
# Test in all cases: NCI-60 cell line screen, 48 h
# 786-0 renal = tested on: 786-0 renal
# A498 renal = tested on: A498 renal
# A549 NSCLC = tested on: A549 NSCLC
# ACHN renal = tested on: ACHN renal
# BT-549 breast = tested on: BT-549 breast
# CAKI-1 renal = tested on: CAKI-1 renal
# CCRF-CEM leukemia = tested on: CCRF-CEM leukemia
# COLO 205 colon = tested on: COLO 205 colon
# DU-145 prostate = tested on: DU-145 prostate
# EKVX NSCLC = tested on: EKVX NSCLC
# HCC-2998 colon = tested on: HCC-2998 colon
# HCT-116 colon = tested on: HCT-116 colon
# HCT-15 colon = tested on: HCT-15 colon
# HL-60(TB) leukemia = tested on: HL-60(TB) leukemia
# HOP-62 NSCLC = tested on: HOP-62 NSCLC
# HOP-92 NSCLC = tested on: HOP-92 NSCLC
# HS 578T breast = tested on: HS 578T breast
# HT29 colon = tested on: HT29 colon
# IGROV1 ovarian = tested on: IGROV1 ovarian
# K-562 leukemia = tested on: K-562 leukemia
# KM12 colon = tested on: KM12 colon
# LOX IMVI melanoma = tested on: LOX IMVI melanoma
# M14 melanoma = tested on: M14 melanoma
# MALME-3M melanoma = tested on: MALME-3M melanoma
# MCF7 breast = tested on: MCF7 breast
# MDA-MB-231 breast = tested on: MDA-MB-231 breast
# MDA-MB-435 = tested on: MDA-MB-435
# MOLT-4 leukemia = tested on: MOLT-4 leukemia
# NCI-H226 lung = tested on: NCI-H226 lung
# NCI-H23 lung = tested on: NCI-H23 lung
# NCI-H460 lung = tested on: NCI-H460 lung
# NCI-H522 lung = tested on: NCI-H522 lung
# NCI/ADR-RES ovarian = tested on: NCI/ADR-RES ovarian
# OVCAR-3 ovarian = tested on: OVCAR-3 ovarian
# OVCAR-4 ovarian = tested on: OVCAR-4 ovarian
# OVCAR-5 ovarian = tested on: OVCAR-5 ovarian
# OVCAR-8 ovarian = tested on: OVCAR-8 ovarian
# PC-3 prostate = tested on: PC-3 prostate
# RPMI-8226 leukemia = tested on: RPMI-8226 leukemia
# RXF 393 renal = tested on: RXF 393 renal
# SF-268 CNS = tested on: SF-268 CNS
# SF-295 CNS = tested on: SF-295 CNS
# SF-539 CNS = tested on: SF-539 CNS
# SK-MEL-2 melanoma = tested on: SK-MEL-2 melanoma
# SK-MEL-28 melanoma = tested on: SK-MEL-28 melanoma
# SK-MEL-5 melanoma = tested on: SK-MEL-5 melanoma
# SK-OV-3 ovarian = tested on: SK-OV-3 ovarian
# SN12C renal = tested on: SN12C renal
# SNB-19 CNS = tested on: SNB-19 CNS
# SNB-75 CNS = tested on: SNB-75 CNS
# SR leukemia = tested on: SR leukemia
# SW-620 colon = tested on: SW-620 colon
# T-47D breast = tested on: T-47D breast
# TK-10 renal = tested on: TK-10 renal
# U251 CNS = tested on: U251 CNS
# UACC-257 melanoma = tested on: UACC-257 melanoma
# UACC-62 melanoma = tested on: UACC-62 melanoma
# UO-31 renal = tested on: UO-31 renal
structure (smiles),measurement,setting,value
COC(=O)c1c(C)c2n(c1C)C(=O)C(c1ccccc1)=C2,GI50,786-0 renal,88.1 µM
same,TGI,786-0 renal,> 100 µM
same,GI50,A498 renal,> 84.7 µM
same,TGI,A498 renal,> 100 µM
same,GI50,A549 NSCLC,> 81.2 µM
same,TGI,A549 NSCLC,> 100 µM
same,GI50,ACHN renal,> 87.6 µM
same,TGI,ACHN renal,> 100 µM
same,GI50,BT-549 breast,61.6 µM
same,TGI,BT-549 breast,> 100 µM
same,GI50,CAKI-1 renal,> 47.9 µM
same,TGI,CAKI-1 renal,> 100 µM
same,GI50,CCRF-CEM leukemia,51.8 µM
same,TGI,CCRF-CEM leukemia,> 100 µM
same,GI50,COLO 205 colon,> 93 µM
same,TGI,COLO 205 colon,> 100 µM
same,GI50,DU-145 prostate,> 100 µM
same,TGI,DU-145 prostate,> 100 µM
same,GI50,EKVX NSCLC,5.91 µM
same,TGI,EKVX NSCLC,> 100 µM
same,GI50,HCC-2998 colon,> 57.8 µM
same,TGI,HCC-2998 colon,> 100 µM
same,GI50,HCT-116 colon,42.5 µM
same,TGI,HCT-116 colon,> 100 µM
same,GI50,HCT-15 colon,28.9 µM
same,TGI,HCT-15 colon,> 100 µM
same,GI50,HL-60(TB) leukemia,53.8 µM
same,TGI,HL-60(TB) leukemia,> 100 µM
same,GI50,HOP-62 NSCLC,67.1 µM
same,TGI,HOP-62 NSCLC,> 100 µM
same,GI50,HOP-92 NSCLC,> 47.1 µM
same,TGI,HOP-92 NSCLC,> 100 µM
same,GI50,HS 578T breast,8.13 µM
same,TGI,HS 578T breast,> 100 µM
same,GI50,HT29 colon,41.1 µM
same,TGI,HT29 colon,> 100 µM
same,GI50,IGROV1 ovarian,34.4 µM
same,TGI,IGROV1 ovarian,> 100 µM
same,GI50,K-562 leukemia,45.3 µM
same,TGI,K-562 leukemia,> 100 µM
same,GI50,KM12 colon,49.7 µM
same,TGI,KM12 colon,> 100 µM
same,GI50,LOX IMVI melanoma,58.8 µM
same,TGI,LOX IMVI melanoma,> 100 µM
same,GI50,M14 melanoma,> 71 µM
same,TGI,M14 melanoma,> 100 µM
same,GI50,MALME-3M melanoma,> 100 µM
same,TGI,MALME-3M melanoma,> 100 µM
same,GI50,MCF7 breast,5.32 µM
same,TGI,MCF7 breast,> 100 µM
same,GI50,MDA-MB-231 breast,24.3 µM
same,TGI,MDA-MB-231 breast,> 100 µM
same,GI50,MDA-MB-435,25.1 µM
same,TGI,MDA-MB-435,> 100 µM
same,GI50,MOLT-4 leukemia,30.8 µM
same,TGI,MOLT-4 leukemia,> 100 µM
same,GI50,NCI-H226 lung,> 100 µM
same,TGI,NCI-H226 lung,> 100 µM
same,GI50,NCI-H23 lung,> 58.3 µM
same,TGI,NCI-H23 lung,> 100 µM
same,GI50,NCI-H460 lung,58.2 µM
same,TGI,NCI-H460 lung,> 100 µM
same,GI50,NCI-H522 lung,58.2 µM
same,TGI,NCI-H522 lung,> 100 µM
same,GI50,NCI/ADR-RES ovarian,53.2 µM
same,TGI,NCI/ADR-RES ovarian,> 100 µM
same,GI50,OVCAR-3 ovarian,45.4 µM
same,TGI,OVCAR-3 ovarian,> 100 µM
same,GI50,OVCAR-4 ovarian,50.4 µM
same,TGI,OVCAR-4 ovarian,> 100 µM
same,GI50,OVCAR-5 ovarian,> 91.9 µM
same,TGI,OVCAR-5 ovarian,> 100 µM
same,GI50,OVCAR-8 ovarian,> 90.9 µM
same,TGI,OVCAR-8 ovarian,> 100 µM
same,GI50,PC-3 prostate,> 80.6 µM
same,TGI,PC-3 prostate,> 100 µM
same,GI50,RPMI-8226 leukemia,25.9 µM
same,TGI,RPMI-8226 leukemia,> 100 µM
same,GI50,RXF 393 renal,55 µM
same,TGI,RXF 393 renal,> 100 µM
same,GI50,SF-268 CNS,> 100 µM
same,TGI,SF-268 CNS,> 100 µM
same,GI50,SF-295 CNS,> 61.9 µM
same,TGI,SF-295 CNS,> 100 µM
same,GI50,SF-539 CNS,> 88.8 µM
same,TGI,SF-539 CNS,> 100 µM
same,GI50,SK-MEL-2 melanoma,> 100 µM
same,TGI,SK-MEL-2 melanoma,> 100 µM
same,GI50,SK-MEL-28 melanoma,> 87.8 µM
same,TGI,SK-MEL-28 melanoma,> 100 µM
same,GI50,SK-MEL-5 melanoma,26.9 µM
same,TGI,SK-MEL-5 melanoma,> 100 µM
same,GI50,SK-OV-3 ovarian,> 73.9 µM
same,TGI,SK-OV-3 ovarian,> 100 µM
same,GI50,SN12C renal,> 100 µM
same,TGI,SN12C renal,> 100 µM
same,GI50,SNB-19 CNS,> 95.6 µM
same,TGI,SNB-19 CNS,> 100 µM
same,GI50,SNB-75 CNS,30.1 µM
same,TGI,SNB-75 CNS,> 100 µM
same,GI50,SR leukemia,> 50.1 µM
same,TGI,SR leukemia,> 100 µM
same,GI50,SW-620 colon,48.6 µM
same,TGI,SW-620 colon,> 100 µM
same,GI50,T-47D breast,9.38 µM
same,TGI,T-47D breast,> 100 µM
same,GI50,TK-10 renal,48.2 µM
same,TGI,TK-10 renal,> 100 µM
same,GI50,U251 CNS,82.8 µM
same,TGI,U251 CNS,> 100 µM
same,GI50,UACC-257 melanoma,> 100 µM
same,TGI,UACC-257 melanoma,> 100 µM
same,GI50,UACC-62 melanoma,28.1 µM
same,TGI,UACC-62 melanoma,> 100 µM
same,GI50,UO-31 renal,31.7 µM
same,TGI,UO-31 renal,> 100 µM

# Source: PubChem BioAssay (NCI)
